{
  "source": "patent US20220046917A1",
  "about": "“ATTRACTANT BLEND COMPOSITIONS, DEVICES AND METHODS FOR ATTRACTING FEMALE MICE” (priority 2020, published 2022)",
  "key": {"wild mice [1]": {"tested_on": "wild mice", "experiment": "Experiment 3: field experiment, captures in paired baited trap boxes", "assay_type": "in vivo, Mus musculus", "settings": "Exp. 3, paired trap boxes", "experimental": "(§1) Each replicate (n=49) consisted of paired trap boxes as depicted in FIG. 4. The paired trap boxes, PROTECTA® Mouse, Bell Laboratories Inc. Madison, Wis.\n(§2) Twice every week, paired trap boxes were checked, and food lures and pheromone lures replaced. Whenever a mouse had been captured, its sex and age (juvenile or adult based on body size and genitalia development) were recorded, and a new trap box and snap trap were deployed. […] The position of the treatment and the control trap within paired trap boxes was re-randomized after each capture.\n(§3) Experiments 3 and 4 evaluated the respective abilities of the CPCs and a blend of brevicomin and thiazole to enhance the attractiveness of testosterone. […] Specifically, in Experiment 3, the treatment box in each pair was baited with brevicomin (1 mg) and thiazole (1 mg) formulated in mineral oil (10 ml) and contained in a 20-ml glass scintillation vial. […] To minimize any potential sources of error, treatment and control trap boxes in each experiment were fitted with the same glassware and volume of mineral oil."}, "wild mice [2]": {"tested_on": "wild mice", "experiment": "Experiment 4: field experiment, captures in paired baited trap boxes", "assay_type": "in vivo, Mus musculus", "settings": "Exp. 4, paired trap boxes", "experimental": "as §1, §2, §3"}},
  "data": [
    {"smiles": "C[C@]12CC[C@H]3[C@@H](CCC4=CC(=O)CC[C@@]43C)[C@@H]1CC[C@@H]2O", "note": "[testosterone]", "values": [
      {"measurement": "adult female mice captured", "setting": "wild mice [1]", "result": "one"},
      {"measurement": "adult females captured", "setting": "wild mice [2]", "result": "four"},
      {"measurement": "adult males captured", "setting": "wild mice [2]", "result": "seven"},
      {"measurement": "juvenile male captured", "setting": "wild mice [2]", "result": "one"}
    ]}
  ]
}
